In patent US20260365684A1, “PHYTOSPHINGOSINE-3,4-CYCLICPHOSPHATE COMPOUND AND PHARMACEUTICAL COMPOSITION COMPRISING THE SAME” (AXCESO BIOPHARMA CO., LTD., priority 2022, published 2026):

Experiments:
SIRT1 [1] = assay: SIRT1 expression in HUVECs by western blot; format: cell-based, human
Method: To determine the increase in SIRT1 expression by the compound of formula (1a-1) prepared in Example 1 above in human umbilical vein endothelial cells (HUVECs), HUVECs were seeded at 5×10^5/4 ml in a 60 mm cell culture dish using ECBM2 medium (Promocell) and stabilized for 12 hours in an incubator maintained at 37 °C and 5% CO2, respectively.
The cells were then treated with 10 nM, 100 nM and 1000 nM of the compound of formula (1a-1) prepared in Example 1 above, respectively, and incubated for another 24 hours, and then SIRT1 expression was determined by western blot.

[2] = tested on: tyrosine hydroxylase (TH); assay: Differentiation of pluripotent stem cells into dopaminergic neurons: tyrosine hydroxylase expression; format: cell-based
Method: Pluripotent stem cells were seeded in Aggre Well plates (stemcell) at 5,000 cells/microwell and cultured for 5 days in E6 medium (GIBCO) to induce embryonic body (EB) formation. For neural rosette formation, EBs were seeded into 35 mm dishes in groups of 30 and cultured for 10 days in N2bF medium. The 35 mm dishes were used after being coated with 15 μg/ml of poly-L-ornithine (sigma) and 1 μg/ml of fibronectin (sigma). The N2Bf medium composition was DMEM/F12 (GIBCO), N2 supplement (stemcell) 1×, 10% NEAA (GIBCO), 55 µM beta-Mercaptoethanol (GIBCO), bFGF (peprotech) 20 ng/ml. For the formation of spherical neural masses (SNMs), rosette masses were sliced and cultured in petri dishes with N2bF medium. SNMs were no larger than 500 UM in size and were sliced and cultured for 3 to 4 passages. After subculture of SNM, the clumps were broken into small pieces using a tungsten mesh (Nilaco) for the neural progenitor cell (NPC) culture step, and then attached to a PLO/FN-coated dish and cultured in N2bF medium. To differentiate NPCs into dopaminergic neurons, the medium was replaced with an ITS-B27 medium after 2 days of NPC culture. The ITS-B27 medium composition was DMEM/F12 (GIBCO), D-(+)-glucose (sigma) 1.5 mg/ml, insulin (wako) 5 μg/ml, transferrin (wako) 50 μg/ml, selenite (sigma) 30 nM, GlutaMAX (GIBCO) 2.5%, and B27 (GIBCO) 1×. After 4 days of NPC culture, 200 ng/ml of Sonic Hedgehog and 100 ng/ml of FGF8 (peprotech) were added to the ITS-B27 medium. After 6 days of NPC culture, 200 ng/ml of Sonic Hedgehog, 20 ng/ml of GDNF, 20 ng/ml of BDNF (peprotech), 200 µM of ascorbic acid, and 500 μM of cAMP (sigma) were added to the ITS-B27 medium and cultured for approximately 5 weeks. The compound of formula (1a-1) was treated starting from the stage 2 days after NPC culture. […]
(§1) The effect of the compound of formula (1a-1) on differentiation into neurons was evaluated by comparing the expression of tyrosine hydroxylase (TH) and dopamine transporter (DAT) depending on the presence or absence of treatment with the compound of formula (1a-1).

IL-6 = IL-6 in serum after CLP treatment by ELISA; format: in vivo, mouse; settings: serum at 18 hours, treated at 6 and 16 hours after CLP; FIG. 10
Method: (§2) After CLP treatment, the inflammatory cytokines TNF-α and IL-6 were analyzed by ELISA.
(§3) Specifically, after treating the compound of formula (1a-1) at 6 and 16 hours after CLP treatment, mouse blood was collected at 18 hours and allowed to stand at room temperature for 1 hour, then centrifuged at 3000 rpm for 10 minutes to obtain serum to analyze the amount of TNF-α and IL-6.

[3] = tested on: amyloid beta monomer (monomeric Aβ, mAβ); assay: Expression of mAβ in brain of AD-induced animal model by fluorescence microscopy; format: in vivo; settings: mouse brain, 1 mg/kg i.p. once every 3 days for 2 weeks, FIG. 3
Method: To determine the therapeutic effect on Alzheimer's Disease (AD), the effects on amyloid beta monomer (monomeric Aβ, mAβ) and Tau protein, which are biomarkers of AD, were analyzed in an AD-induced animal model.
APP/PS/Tau transgenic mice were used as an AD-induced animal model. The compound of formula (1a-1) was administered intraperitoneally once every 3 days at a concentration of 1 mg/kg to 12-week-old transgenic mice for 2 weeks, and the expression of mAβ and Tau proteins in the mouse brain was measured after 1 and 4 weeks. After anesthetizing the mouse, the cervical region was incised with a dissecting tool, and then the occipital region was incised to remove both sides of the skull. The brain was washed with phosphate buffered saline (PBS) and fixed with 4% paraformaldehyde (Sigma, St Louis, MO, USA) for 12 hours at 4 °C. These were cut to a thickness of approximately 10 μm using a vibratome, and hippocampus and cortex sections were collected and placed in 24 wells. PBS was added to the wells containing the fixed tissue sections, and fluorescent nanoparticles (QD565, red fluorescence) conjugated with anti-amyloid antibodies and anti-Tau antibodies (Santa Cruz, USA) were added to each 2 μM, and reacted at 4 °C for 12 hours. The expression of mAβ and Tau was confirmed by fluorescence microscopy.

SIRT1 [4] = assay: SIRT1 expression in mouse vascular cells; format: cell-based
[5] = tested on: dopamine transporter (DAT); assay: Differentiation of pluripotent stem cells into dopaminergic neurons: dopamine transporter; format: cell-based; settings: 5-week differentiation sample, FIG. 5B
Method: Pluripotent stem cells were seeded in Aggre Well plates (stemcell) at 5,000 cells/microwell and cultured for 5 days in E6 medium (GIBCO) to induce embryonic body (EB) formation. For neural rosette formation, EBs were seeded into 35 mm dishes in groups of 30 and cultured for 10 days in N2bF medium. The 35 mm dishes were used after being coated with 15 μg/ml of poly-L-ornithine (sigma) and 1 μg/ml of fibronectin (sigma). The N2Bf medium composition was DMEM/F12 (GIBCO), N2 supplement (stemcell) 1×, 10% NEAA (GIBCO), 55 µM beta-Mercaptoethanol (GIBCO), bFGF (peprotech) 20 ng/ml. For the formation of spherical neural masses (SNMs), rosette masses were sliced and cultured in petri dishes with N2bF medium. SNMs were no larger than 500 UM in size and were sliced and cultured for 3 to 4 passages. After subculture of SNM, the clumps were broken into small pieces using a tungsten mesh (Nilaco) for the neural progenitor cell (NPC) culture step, and then attached to a PLO/FN-coated dish and cultured in N2bF medium. […]
as §1

mouse organs = assay: In vivo permeability of mouse organs after CLP (Evans blue dye); settings: treated at 6 and 16 hours after CLP, EBD i.v. at 18 hours; FIG. 11C
Method: Permeability was measured by an in vitro method using cell culture and in vivo method using Evans blue dye. To increase permeability, LPS was used in the in vitro method and CLP treatment was used in the in vivo method.
To measure permeability by an in vivo method, the compound of formula (1a-1) was treated at 6 and 16 hours after CLP treatment in the same manner as in Experimental Example 7 above, and 200 μl of a 0.5% Evans blue dye (EBD) solution was administered intravenously at 18 hours, circulated for 1 hour, and organs were harvested to visually confirm the presence of dye. The organs were then homogenized in a homogenizer to extract the dye at 55 °C for 48 hours, and permeability was determined by measuring absorbance at 620 nm.

TNF-α = TNF-α in serum after CLP treatment by ELISA; format: in vivo, mouse; settings: serum at 18 hours, treated at 6 and 16 hours after CLP; FIG. 10
Method: as §2, §3

`CCCCCCCCCCCCCC[C@H]1OP(=O)(O)O[C@H]1[C@@H](N)CO.Cl` [formula (1a-1), (4S,5R)-4-((S)-1-amino-2-hydroxyethyl)-2-hydroxy-5-tetradecyl-1,3,2-dioxaphosphoran-2-oxide hydrochloride] was tested, and the “concentration increasing SIRT1 expression relative to that of resveratrol” value (SIRT1 [1]; HUVEC EC50 about 10 nM vs known EC50 of resveratrol approximately […] μM) was “thousands of times lower than that of resveratrol”, the “increase in SIRT1 expression” value (SIRT1 [1]; HUVECs, 10 nM, 100 nM and 1000 nM, 24 hours, FIG. 1) was “increases the expression of SIRT1 even at a very low concentration of 10 nM” and the EC50 (SIRT1 [1]; Homo sapiens, HUVEC, HUVECs, 24 hours, western blot, read-out: concentration (EC50) that increased the expression of SIRT1 by 50%) was about 10 nM. For the same compound, the “TH expression (western blot)” value ([2]; 5-week differentiation sample, FIG. 5B) was “TH expression is increased”, the “expression of TH (cell fluorescence immunostaining)” value ([2]; FIG. 5A) was “the expression of TH increased” and the “time at which TH expression was elevated” value ([2]; FIG. 5A, TH expression otherwise increases after more than 5 weeks of differentiation) was at most 3 weeks. The “amount of IL-6” value (IL-6) was “significantly decreased”, the “red fluorescence for mAβ” value ([3]; 1 week and 4 weeks after) was “negligible red fluorescence for mAβ and Tau” and the expression of amyloid [3] was “significantly reduced”. For the same compound, the “concentration of maximum SIRT1 expression” value (SIRT1 [4]) was 100 ng/mL, the “DAT glycosylation (western blot)” value [5] was “DAT glycosylation is increased” and the “amount of Evans blue dye (EBD) in each organ” value (mouse organs) was “returns to normal”. For the same compound, the “amount of TNF-α” value (TNF-α) was “significantly decreased”.
